For test [1], the target named is T1, glucose transporter 2 (GLUT2) (Homo sapiens, UniProt P11168).
T1 construct: expressed in transfected cells; host or cells: HEK293t
T1 sequence (P11168 1-524): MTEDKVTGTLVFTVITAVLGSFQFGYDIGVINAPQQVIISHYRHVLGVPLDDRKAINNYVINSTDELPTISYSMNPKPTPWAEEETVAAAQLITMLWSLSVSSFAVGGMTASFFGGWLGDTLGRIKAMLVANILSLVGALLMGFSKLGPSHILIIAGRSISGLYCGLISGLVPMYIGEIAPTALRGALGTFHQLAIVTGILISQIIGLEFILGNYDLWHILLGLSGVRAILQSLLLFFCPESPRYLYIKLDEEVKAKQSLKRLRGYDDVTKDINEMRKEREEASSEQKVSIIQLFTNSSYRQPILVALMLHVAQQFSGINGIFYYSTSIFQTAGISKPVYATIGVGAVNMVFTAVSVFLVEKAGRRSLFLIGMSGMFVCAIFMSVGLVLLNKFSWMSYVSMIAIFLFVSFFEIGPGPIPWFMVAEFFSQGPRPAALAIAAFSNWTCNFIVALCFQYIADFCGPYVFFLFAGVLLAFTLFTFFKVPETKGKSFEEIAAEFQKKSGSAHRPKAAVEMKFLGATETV
Briefly: 2-NBDG glucose uptake in transfected HEK293t cells. The format is cell-based. As to conditions: 50-0.1 μM tested. As for the experimental part:
In vitro assays for measuring glucose uptake were designed to assess whether EPM-301 and EPM-302 compounds are capable of inhibiting or increasing glucose uptake via glucose transporters (GLUTs).
Transfected HEK293t cells, which express the glucose transporter 2 (GLUT2), were cultured in a 96 well plate and maintained at 37° C. in 5% CO2 in DMEM medium supplemented with 10% FCS, 2 mM 1-glutamine, 1 mM sodium pyruvate, 100 U/mL penicillin, and […] streptomycin for 24 h. The medium was then washed with a choline chloride Na^+-free buffer (CCB), in which only GLUTs (and not the sodium/glucose transporters [SGLTs]) were active. The wells were then added with CCB/CCB+2-NBDG (a fluorescent derivative of glucose). Compounds were tested in a range of concentrations for their ability to inhibit/increase 2-NBDG uptake into the cells. After 1.5 h incubation, cells were washed with CCB and incubated with 1 μg/μL of Hoechst for 15 mins at 37° C. and protected from light. Fluorescence was measured by the Cytation-3 plate reader at ex:485 nm/em:528 nm and ex:350 nm/em:461 nm for 2-NBDG Hoechst, respectively. Results of the 2-NBDG levels were normalized to Hoechst levels of each well, and presented as a change in the uptake of 2-NBDG in comparison with Vehicle-treated group.
Vehicle solution (choline chloride buffer), EPM-301 (50-0.1 μM), and EPM-302 (50-0.1 μM) were used for the experiments.
Values are expressed as mean±SEM. Unpaired two-tailed student's t-test was used to determine the differences between the groups. Significance was set at p<0.05. *versus vehicle; #versus control.

Test [2] has as its system DSS induced acute colitis. Put plainly: DSS induced acute colitis mouse model, EPM-301 versus EPM-302, Example 13. The format is in vivo, C57BL/6 mice. As for the experimental part:
Colitis was induced in 10 weeks old female C57BL/6 mice using dextran sodium sulphate (DSS). Mice were fed for 8 days with 2% (wt/vol) DSS in their drinking water. […] EPM-302 served as an additional control.
Weight loss was measured on days 1, 3, 5, 8, and 10.
Next, the mice were sacrificed and the length of their colons were measured.
Cytokine levels of IL-6 and TNFα were measured using ELISA kits (R&D Systems, USA). Colon TNFα (FIG. 19), blood IL-6 (FIG. 20), levels were lower in mice treated with CBDA-Me (EPM-301) as compared to EPM-302. Similarly, the MEICS score of EPM-301 treated subjects were also lower than EPM-302 treated subjects (FIG. 21). Representative photos of colonoscopy can be seen in FIG. 22A-22D.

Test [3] deals with partial meniscectomy/ACL transection rat model of surgical induced osteoarthritis and pain induced incapacitance. Briefly: Weight bearing (incapacitance tester) in rat partial meniscectomy/ACL transection model, Example 5. The format is in vivo. Here is the method: Rats were allowed to acclimatize for 1 week, followed by assessment of their weight bearing preference using an incapacitance meter. Unilateral medical meniscectomy and anterior cruciate ligament ligation (MMX/ACLT) surgery was performed on the right knee of a subject rat. Weight bearing preference was tested before and after surgery. After 2 weeks, treatments with both intra-articular (1) and. intra-peritoneal (6) administrations of EPM-301 began in the EPM-301 group. Weight bearing preference was then assessed 4 and 7 days after the start of therapy.
Wistar Rats (HsdHan female rats 225-249 grams) were acquired from Envigo. The rats were evaluated using an incapacitance tester. They were tested pre-operation, one-week post-operation, two weeks post-operation, prior to injection, 4 and 7 days post injections.
EPM-301 was dissolved in a solution mixture of 1:1:18 EtOH:cremophor:seline to a final concentration of 3.5 mg/mL.
Intra-articular (i.a.) injection was carried out with 100 uL and intra-peritoneal (i.p.) injections were carried out with 150 uL. All were injected i.a. in the first day. EPM-301 was injected via i.p. administration on the first day, and for 5 additional days everyday via i.p. administration.
Student's t-test was performed at the last follow-up time to determine effect of the therapy as primary endpoint. The level of significance was 0.05 alpha. ANOVA was used to compare all time points, a post-hob analysis with the Scheffe all comparisons method was performed. Calculations were performed using the Analyze-it Excel add-on function.
The percentage weight bearing was calculated as the amount of weight born (in grams) on the right hind limb divided by the amount of weight born on the left hind limb. The ratio was expressed as percentage weight bearing. There were 6 animals in the EPM-301 treated group and 4 animals in the control group.

Regarding `C=C(C)[C@@H]1CCC(C)=CC1c1c(O)cc(CCCCC)c(C(=O)OC)c1O` (some centres unmarked) [EPM-301, cannabidiolic acid methyl ester], the “concentration at which the effect on glucose transport was observed” value in test [1] is 50 µM. The “glucose uptake (2-NBDG) in HEK293 cells” value in test [1] (1.5 h incubation, versus vehicle (FIG. 36A, 36B)) is reported as “significantly reduce”. Also, the therapeutic effect result in test [2] (10 mg/kg) is “not enough to induce a therapeutic effect”. Also, the weight loss result in test [2] (40 mg/kg by gavage, compared to CBD and EPM-302 (FIG. 17)) is “reduced”. The colon length result in test [2] (40 mg/kg, versus EPM-302 and untreated mice, similar to prednisone (FIG. 18)) is reported as “greater/longer”. The “colon TNFα” value in test [2] (as compared to EPM-302, ELISA (FIG. 19)) is “lower”. Besides, the “blood IL-6” value in test [2] (as compared to EPM-302, ELISA (FIG. 20)) is listed as “lower”. For the same compound, the MEICS score entry in test [2] (versus EPM-302 treated subjects (FIG. 21)) is reported as “lower”. Besides, the “Rt limb weight bearing” value in test [3] (following injection, 3.5 mg/mL, 100 uL i.a. once plus 150 uL i.p. on 6 days, control group 59.0%) is reported as 106.7%. The “weight bearing, average value” in test [3] (immediately prior to injection, two weeks following model induction (baseline before treatment)) was 42.25%. The “Rt/Lt weight bearing, average value” in test [3] (prior to operation (baseline of the group, before treatment)) was 139.6%.
